≈ marks a conversion by molar mass, not a printed value.

These results are taken from paper PMC12731232, “Microbial Biotransformation of the Sesquiterpene Carotol: Generation of Hydroxylated Metabolites with Potential Cytotoxic and Target-Specific Binding Activities” (Biomolecules, 2025).

Series [1] relates to HCT-116 (colon carcinoma). Kind of series: MTT cell viability assay, HCT-116. To be noted: for IC50: Homo sapiens, HCT-116, 24 h, read-out: Cytotoxic activity IC50 ± SD; for Selectivity index (SI): SI = CC50(MRC-5)/IC50(HCT-116). In general terms: Tetrazolium assays rely on reduction of a dye to a coloured formazan, in cell work by metabolically active cells.
Protocol: (§1) The assay was conducted at the Regional Center for Mycology and Biotechnology, Al-Azhar University, Cairo, Egypt.
(§2) Cancer and normal cells were seeded into 96-well plates at a density of 5 × 10^4 cells per well and incubated for 24 h prior to treatment. Test compounds, dissolved in 0.5% DMSO, were added in triplicate at twelve different concentrations. Vehicle controls (media only or media containing 0.5% DMSO) were included. After a 24 h incubation period, cell viability was assessed via the MTT assay.
(§3) Briefly, the media were replaced with 100 µL of fresh RPMI-1640 medium, followed by the addition of 10 µL of a 12 mM MTT stock solution (5 mg/mL in PBS) to each well, including untreated controls. Plates were incubated at 37 °C in a 5% CO2 atmosphere for 4 h. Subsequently, 85 µL of medium was removed from each well, and 50 µL of DMSO was added to dissolve the resulting formazan crystals. The plates were thoroughly mixed and incubated for an additional 10 min at 37 °C. Absorbance was measured at 590 nm using a microplate reader (SunRise, TECAN Inc., Morrisville, NC, USA). Cell viability percentages were calculated, and IC50 values (µM) were determined from dose–response curves using GraphPad Prism 10 software (San Diego, CA, USA) [38].
Series [2] deals with HepG-2 (hepatocellular carcinoma). Kind of series: MTT cell viability assay, HepG-2. To be noted: for IC50: Homo sapiens, HepG2, 24 h, read-out: Cytotoxic activity IC50 ± SD; for Selectivity index (SI): SI = CC50(MRC-5)/IC50(HepG-2).
Protocol: as §1, §2, §3
A further series relates to A-549 (lung carcinoma). Kind of series: MTT cell viability assay, A-549. To be noted: for IC50: Homo sapiens, A549, 24 h, read-out: Cytotoxic activity IC50 ± SD; for Selectivity index (SI): SI = CC50(MRC-5)/IC50(A-549).
The test system of series [3] is green monkey kidney epithelial cells (VERO). Details: method as in doi:10.1016/j.indcrop.2016.08.001. To be noted: cited from earlier work.
Series [4] is described as follows: Substrate control stability in sterile fermentation medium. To be noted: without microorganisms. Format: physicochemical. The method, then:
Control groups included a substrate control, in which sterile medium containing carotol (5 mg/100 µL DMF) was incubated without microorganisms. […] Culture controls consisted of microorganisms grown under identical conditions to the screening cultures but without carotol. After two weeks of incubation, all cultures were harvested and analyzed by thin-layer chromatography.

A short description of a further series: in vitro. To be noted: human.
For series [5], the system named is human hypopharyngeal squamous cell carcinoma cells (FaDu). Also on record: method as in doi:10.1016/j.indcrop.2016.08.001. To be noted: cited from earlier work.
The test system of the next series is MCF-7 (breast carcinoma). Kind of series: MTT cell viability assay, MCF-7. To be noted: for IC50: Homo sapiens, MCF7, 24 h, read-out: Cytotoxic activity IC50 ± SD; for Selectivity index (SI): SI = CC50(MRC-5)/IC50(MCF-7).
Series [6] in a line: MTT cell viability assay, MRC-5. To be noted: human, MRC-5 normal lung fibroblasts.
Protocol: as §1, §2, §3

Protocol for A-549 (lung carcinoma): as §1, §2, §3
Protocol for MCF-7 (breast carcinoma): as §1, §2, §3
Protocol for in vitro: as §1, §2, §3

Regarding `CC1=CC[C@@]2(C)CC[C@H](C(C)C)[C@@]2(O)CC1` [Carotol], the IC50 (as a rule, the concentration that inhibits the measured activity by half) in series [1] is 25.7 ± 0.53 µM; in [2] it was 52.3 ± 4.23 µM; in the series with A-549 (lung carcinoma), 28.7 ± 2.75 µM; in [3] it was 39.7 µg/mL (≈ 179 µM); in [5], 38.3 µg/mL (≈ 172 µM); in the series on MCF-7 (breast carcinoma), 68.4 ± 6.04 µM. The “Selectivity index (SI)” value is 6.85 in series [1], 3.36 in [2], 6.14 in the series with A-549 (lung carcinoma) and 2.57 with MCF-7 (breast carcinoma). Further, the “Stability of substrate control” value is listed as “remained fully stable” in series [4] (5 °C, two weeks) and “slight decomposition” in series [4] (room temperature (25–30 °C)). Further, the midpoint of inhibition in the series “in vitro”, the IC50 at 24 h, lay at 176 ± 10.9 µM.

`CC(C)(O)[C@H]1[C@@H](O)C[C@]2(C)C[C@H](O)[C@]3(C)CC[C@]12O3` [CM2, 9α,13-dihydroxydaucol]: the IC50 in [1] came to 181 ± 9.95 µM; in series [2], 154 ± 9.39 µM; in the series with A-549 (lung carcinoma), 138 ± 9.2 µM; with MCF-7 (breast carcinoma), 213 ± 13.7 µM. The “Selectivity index (SI)” value in [1] is 1.37; in [2], 1.60; in the series on A-549 (lung carcinoma), 1.79; in the series with MCF-7 (breast carcinoma), 1.16. The compound also came in with an IC50 at 24 h in the series “in vitro” of 248 ± 11.2 µM.

Take `CC(C)C1C(O)CC2(C)CC(O)C3(C)CCC12O3` (stereo not drawn) [CM1, 9α-hydroxydaucol]: the IC50 was determined as 339 ± 15.6 µM in series [1], 221 ± 12.3 µM in [2], 225 ± 13.4 µM in the series with A-549 (lung carcinoma) and 401 ± 20.3 µM in the series with MCF-7 (breast carcinoma). Further, the “Selectivity index (SI)” value in series [1] came to 1.37; in series [2], 2.11; in the series with A-549 (lung carcinoma), 2.07; in the series on MCF-7 (breast carcinoma), 1.16. In the series “in vitro”, the IC50 at 24 h is 466 ± 20.3 µM.

Turning to `CC(C)[C@H]1CC[C@]2(C)C[C@H](O)[C@@](C)(O)CC[C@]12O` [CM3], the IC50 amounted to 226 ± 11 µM in series [1], 196 ± 10.6 µM in series [2], 205 ± 10.6 µM in the series with A-549 (lung carcinoma) and 242 ± 15.7 µM with MCF-7 (breast carcinoma). Also, the “Selectivity index (SI)” value in [1] was determined as 1.40; in series [2], 1.62; in the series with A-549 (lung carcinoma), 1.54; in the series on MCF-7 (breast carcinoma), 1.31. In the series “in vitro”, the IC50 at 24 h came out at 316 ± 15.2 µM.

For `COc1cccc2c1C(=O)c1c(O)c3c(c(O)c1C2=O)C[C@@](O)(C(=O)CO)C[C@@H]3O[C@H]1C[C@H](N)[C@H](O)[C@H](C)O1` [Doxorubicin, doxorubicin, reference compound], the IC50 in series [1] worked out at 2.99 ± 0.22 µM; in [2] it was 1.27 ± 0.2 µM; in the series on A-549 (lung carcinoma) it was 3.31 ± 0.26 µM; in the series with MCF-7 (breast carcinoma), 3.07 ± 0.18 µM. The “Selectivity index (SI)” value in series [1] is 14.66; in series [2], 34.62; in the series on MCF-7 (breast carcinoma) it was 14.31. Moreover, half-maximal inhibition in series [6] (IC50 at 24 h) required 44 ± 3.24 µM.
